Reference: patent US20250275537A1, “CARBOXAMIDE APYRASE INHIBITORS” (Texas Crop Science, Inc., priority 2024, published 2025)

Test system: apyrase
Assay: Apyrase inhibition assay (Method 1)
Type: biochemical
Settings: inhibitor conc at 1 mM stock, 10 μl per well; 1 hr room temperature; rounded average of at least two assay results
Description: Apyrase inhibitors useful as enhancers of pesticidal activity are assessed using an in vitro assay. The method of Windsor, Bio Techniques 33:1024-1030 (November 2002) was used as follows
96 well plates were used for the assay: (Greiner bio-one: REF-655901-96 well, PS, F-bottom, Clear, Non-binding)
• Reaction Buffer: 60 mM Hepes, 3 mM MgCl2, 3 mM CaCl2 and 3 mM ATP (pH 6.5) • Development Buffer A: 2% aqueous ammonium molybdate • Development Buffer B: 11% ascorbic acid in 37.5% TCA in water • Stop buffer C: 2% trisodium citrate in 2% acetic acid solution in water • Add 100 μl of reaction buffer to each well. • Add 10 μl of DMSO (control) or inhibitor/compound or compounds such as N1915 or orthovanadate to each well. (use inhibitor conc at 1 mM; orthovanadate at 2 mM and N1915 at 1 mM) • Add 10 μl of apyrase (concentration based on optimization —Dilute 1 U/μl enzyme to different concentrations such as 0.1U, 0.05U, 0.0025, 0.001U, 0.0005U—to find a good range) • Incubate plate at room temperature for 1 hr • Mix development buffer A and B in the ratio of 1:1.5 (just before use). • Add 50 ul of A:B mix in each well (incubate for 2 mins) • Add 50 ul of C in each well • Measure/Read Absorbance of plate @630 nm
Inhibitory data for the apyrase assay described above are provided for selected compounds in Table 3. In Table 3, D indicates inhibition of <10%.
With reference to Table 3, percent inhibition of apyrase is reported as the rounded average of at least two assay results.

% Inhibition of Apyrase	Structure (SMILES)
D (D indicates inhibition of <10%)	O=C1CCCc2ccc(NC(=O)c3ccc4c(c3)C(=O)NCCO4)cc2N1 [Compound I-60, 5-oxo-N-(2-oxo-2,3,4,5-tetrahydro-1H-benzo[b]azepin-8-yl)-2,3,4,5-tetrahydrobenzo[f][1,4]oxazepine-7-carboxamide]
D (D indicates inhibition of <10%)	COc1ccccc1NC(=O)c1ccccc1C(=O)N(C)Cc1ccccc1 [Compound I-40, N^1-benzyl-N^2-(2-methoxyphenyl)-N1-methylphthalamide]
D (D indicates inhibition of <10%)	O=C(Nc1ccc(N2CCCC2=O)cc1)c1ccc(C(=O)Nc2ccc(N3CCCC3=O)cc2)cc1 [Compound I-46, N^1,N^4-bis(4-(2-oxopyrrolidin-1-yl)phenyl)terephthalamide]
A (A indicates inhibition above 30%)	CCOC(=O)c1ccc(NC(=O)c2cccc(C(=O)Nc3ccc(C(=O)OCC)cc3)c2)cc1 [Compound I-7, diethy 1 4,4′-(isophthaloylbis(azanediyl))dibenzoate]
D (D indicates inhibition of <10%)	COc1ccc(NC(=O)c2ccc(C(=O)Nc3ccc(OC)cc3OC)cc2)c(OC)c1 [Compound I-45, N^1,N^4-bis(2,4-dimethoxyphenyl)terephthalamide]
D (D indicates inhibition of <10%)	O=C(Nc1cccc2c1CNC2=O)c1cccc(C(=O)Nc2cccc3c2CNC3=O)c1 [Compound I-54, N^1,N^3-bis(1-oxoisoindolin-4-yl)isophthalamide]
D (D indicates inhibition of <10%)	CCCNC(=O)c1cccc(C(=O)Nc2cccc3cn[nH]c23)c1 [Compound I-57, N^1-(1H-indazol-7-yl)-N^3-propylisophthalamide]
D (D indicates inhibition of <10%)	Cc1nncn1CCNC(=O)c1ccc(C(=O)Nc2ccccc2)cc1 [Compound I-49]
D (D indicates inhibition of <10%)	C#Cc1cccc(NC(=O)c2ccccc2C(=O)N2CCN(C)CC2)c1 [Compound I-58, N-(3-ethynylphenyl)-2-(4-methylpiperazine-1-carbonyl)benzamide]
D (D indicates inhibition of <10%)	CCCNC(=O)c1cccc(C(=O)Nc2ccc3c[nH]nc3c2)c1 [Compound I-52, N^1-(2H-indazol-6-yl)-N^3-propylisophthalamide]
A (A indicates inhibition above 30%)	O=C(Nc1ccccc1)c1cccc(C(=O)Nc2cc3c(cc2Cl)OCO3)c1 [Compound I-4, N^1-(6-chlorobenzo[d][1,3]dioxol-5-yl)-N3-phenylisophthalamide]
A (A indicates inhibition above 30%)	CSc1cccc(NC(=O)c2ccc(C(=O)Nc3cccc(SC)c3)cc2)c1 [Compound I-2, N^1,N^4-bis(3-(methylthio)phenyl)terephthalamide]
D (D indicates inhibition of <10%)	O=C(Nc1ccccc1)c1ccc(C(=O)Nc2cnn(CC3CCCO3)c2)cc1 (centres unmarked) [Compound I-61, N^1-phenyl-N^4-(1-((tetrahydrofuran-2-yl)methyl)-1H-pyrazol-4-yl)terephthalamide]
A (A indicates inhibition above 30%)	O=C(Nc1ccc2c(c1)OCO2)c1ccc(C(=O)Nc2ccc3c(c2)OCO3)cc1 [Compound I-5, N^1,N^4-bis(benzo[d][1,3]dioxol-5-yl)terephthalamide]
D (D indicates inhibition of <10%)	Cc1cnc(NC(=O)c2ccc(C(=O)Nc3ccccc3)cc2)[nH]1 [Compound I-38, N^1-(5-methyl-1H-imidazol-2-yl)-N^4-phenylterephthalamide]

Structure (SMILES)	% Inhibition of Apyrase
COC(C)(C)CNC(=O)c1ccc(C(=O)Nc2ccccc2)cc1 [Compound I-28, N^1-(2-methoxy-2-methylpropyl)-N^4-phenylterephthalamide]	C (C indicates inhibition of from 10% to 20%)
O=C(Nc1ccc(-c2c[nH]cn2)cc1)c1cccc(C(=O)Nc2ccc(-c3c[nH]cn3)cc2)c1 [Compound I-17, N^1,N^3-bis(4-(1H-imidazol-4-yl)phenyl)isophthalamide]	B (B indicates inhibition of from 20% to 30%)
O=C(NCc1ccccc1)c1ccccc1C(=O)NCc1ccccc1 [Compound I-30, N^1,N^2-dibenzylphthalamide]	C (C indicates inhibition of from 10% to 20%)
O=C(Nc1ccccc1)c1ccc(C(=O)Nc2cc3n(n2)CCC3)cc1 [Compound I-34, N^1-(5,6-dihydro-4H-pyrrolo[1,2-b]pyrazol-2-yl)-N^4-phenylterephthalamide]	C (C indicates inhibition of from 10% to 20%)
COc1cc(NC(=O)c2ccc(C(=O)Nc3cc(OC)cc(OC)c3)cc2)cc(OC)c1 [Compound I-20, N1,N4-bis(3,5-dimethoxyphenyl)terephthalamide]	C (C indicates inhibition of from 10% to 20%)
CCc1noc(C)c1Cn1c(=O)c2ccccc2c(=O)n1C [Compound I-21, 2-((3-ethyl-5-methylisoxazol-4-yl)methyl)-3-methyl-2,3-dihydrophthalazine-1,4-dione]	C (C indicates inhibition of from 10% to 20%)
Cc1n[nH]c2cc(NC(=O)c3cccc(C(=O)Nc4ccc5c(C)n[nH]c5c4)c3)ccc12 [Compound I-19, N^1,N^3-bis(3-methyl-1H-indazol-6-yl)isophthalamide]	B (B indicates inhibition of from 20% to 30%)
Cc1cc2c(cc1NC(=O)c1cccc(C(=O)Nc3ccccc3)c1)OCO2 [Compound I-64, N^1-(6-methylbenzo[d][1,3]dioxol-5-yl)-N^3-phenylisophthalamide]	B (B indicates inhibition of from 20% to 30%)
CNC(=O)c1cccc(C(=O)Nc2ccc(C#N)c(C(F)(F)F)c2)c1 [Compound I-35, N^1-(4-cyano-3-(trifluoromethyl)phenyl)-N^3-methylisophthalamide]	C (C indicates inhibition of from 10% to 20%)
O=C(Nc1cccc([N+](=O)[O-])c1)c1ccccc1C(=O)N1CCCC1 [Compound I-33, N-(3-nitrophenyl)-2-(pyrrolidine-1-carbonyl)benzamide]	C (C indicates inhibition of from 10% to 20%)
Cn1nc(Cn2c(=O)c3ccccc3c(=O)n2C)cc1Cl [Compound I-26, 2-((5-chloro-1-methyl-1H-pyrazol-3-yl)methyl)-3-methyl-2,3-dihydrophthalazine-1,4-dione]	C (C indicates inhibition of from 10% to 20%)
CC1(C)NC(=O)N(c2cccc(NC(=O)c3cccc(C(=O)Nc4ccccc4)c3)c2)C1=O [Compound I-11, N^1-(3-(4,4-dimethyl-2,5-dioxoimidazolidin-1-yl)phenyl)-N^3-phenylisophthalamide]	B (B indicates inhibition of from 20% to 30%)
O=C(Nc1cccc(N2CCCC2)c1)c1ccc2c(c1)C(=O)NC2=O [Compound I-10, 1,3-dioxo-N-(3-(pyrrolidin-1-yl)phenyl)isoindoline-5-carboxamide]	B (B indicates inhibition of from 20% to 30%)
O=C(Nc1ccccc1)c1cccc(C(=O)Nc2cccc(-c3nnn[nH]3)c2)c1 [Compound I-29, N^1-(3-(1H-tetrazol-5-yl)phenyl)-N^3-phenylisophthalamide]	C (C indicates inhibition of from 10% to 20%)
